Experimental findings from patent US6242439A, “Azetidinone derivatives for the treatment of HCMV infections” (Boehringer Ingelheim (Canada) Ltd., priority 1998, dated 2001) are described below.

pEC50, pIC50: −log10 of the molar value.

Data set [1] concerns HCMV (strain AD169, ATCC VR-538). Briefly: Plaque Reduction Assay (PRA). It is filed as cell-based, human cytomegalovirus (HCMV). The conditions noted are these: Human betaherpesvirus 5, AD169, Hs68, 192 h, Hs-68 cells, approximately 50 PFU HCMV AD169, 8 days at 37°; read-out: EC50. How it is done:
B. Plaque Reduction Assay (PRA)
Hs-68 cells (ATCC #CRL 1635) were seeded in 12-well plates at 83,000 cells/well in 1 mL of DMEM medium (Gibco Canada Inc.) supplemented with 10% fetal bovine serum (FBS, Gibco Canada Inc.). The plates were incubated for 3 days at 37° to allow the cells to reach 80-90% confluency prior to the assay.
The medium was removed from the cells by aspiration. The cells were then infected with approximately 50 PFU of HCMV (strain AD169, ATCC VR-538) in DMEM medium supplemented with 5% inactivated FBS (assay medium). (DMEM medium is commercially available and has been described by R. Dulbecco et al., Virology 1959, 8, 396.) The virus was allowed to adsorb to cells for 2 h at 37°. Following viral adsorption, the medium was removed from the wells by aspiration. The cells were then incubated with or without 1 mL of appropriate concentrations of test reagent in assay medium. Occasionally, test compounds were added 24 h post-infection. After 4 days of incubation at 37°, the medium was exchanged with fresh medium containing test compound and 4 days later the cells were fixed with 1% aqueous formaldehyde and stained with a 2% violet solution in 20% ethanol in water. Microscopic plaques were counted using a stereomicroscope. Drug effects were calculated as a percent reduction in the number of plaques in the presence of each drug concentration compared to the number observed in the absence of drug. Ganciclovir was used as a positive control in all experiments.
Background: Plaque reduction counts the foci of infection that form in a cell layer.

Data set [2] can be described thus: Cytotoxic effects, tetrazolium salt (MTT) metabolic assay. The note with it: read-out: TC50 (the source's name). It is filed as cell-based. The procedure:
In conjunction with the appropriate starting materials and intermediates, the procedures of examples 1 to 11 can be used to prepare other compounds of formula 1. Examples of compounds thus prepared are listed in the following Tables I, II and III together with mass spectrum data for the compounds, and results from the assays A and B of example 12. Cytotoxic effects noted as TC50 in the following tables were determined according to the tetrazolium salt (MTT) metabolic assay, F. Denizot and F. Lang, J. Immun. Meth., 1986, 89, 271.

The target of the next data set is HCMV NO protease (Human cytomegalovirus, UniProt P16753). Briefly: HCMV NO Protease Assay (inhibition of cleavage of internally quenched fluorogenic peptide substrate). It is filed as biochemical. The conditions noted are these: 100 nM HCMV NO protease, 5 μM substrate, 2.5 h at 30°, pH 8. How it is done: This particular assay determines the ability of a test compound to inhibit the activity of HCMV protease. More specifically, in the assay described herein, the inhibitory activity of the test compound is evaluated on the basis of its ability to interfere with the HCMV No protease cleavage of a fluorogenic peptide substrate which in turn is based on the maturation cleavage site of the enzyme.
A. HCMV NO Protease Assay
Material & Methods: Fluorescence measurements were recorded on a Perkin-Elmer LS-50B spectrofluorimeter equipped with a plate reader accessory. UV measurements were recorded on a Thermomax® microplate reader from Molecular Devices Corporation, Menlo Park, Calif., USA.
HCMV NO protease was assayed with an internally quenched fluorogenic substrate based on the maturation cleavage site (Abz-[…](3-NO2)R--OH, kcat /KM =260 M^-1 s^-1). The fluorescence increase upon cleavage of the Ala-Ser amide bond was monitored using excitation λ=312 nm (slit 2.5 nm) and emission λ=415 nm (slit 5 nm). A protocol adaptable to a 96-well plate format was designed for the determination of IC50 values of inhibitors. […] After this period, enzymatic hydrolysis of the fluorogenic substrate in the absence of inhibitor led to about a 30% conversion. Quenching was not required before fluorescence measurement since the total scanning time by the plate reader accessory was brief relative to the duration of the reaction. The aqueous incubation buffer contained 50 mM tris(hydroxymethyl)aminomethane.HCl pH 8, 0.5M Na2 SO4, 50 mM NaCl, 0.1 mM EDTA, 1 mM tris(2-carboxyethyl)phosphine.HCl, 3% v/v DMSO and 0.05% w/v casein. The final concentrations of HCMV NO protease (expressed in terms of total monomer concentration) and substrate were 100 nM and 5 μM respectively. IC50 values were obtained through fitting of the inhibition curve to a competitive inhibition model using SAS NLIN procedure. The mode of inhibition was determined by measurements of the initial rates (in cuvettes) at various substrate concentrations in the buffer as described above. The IC50 values listed in the following tables the IC50 were obtained according to this assay.

HCMV NO protease, sequence (P16753 1-256): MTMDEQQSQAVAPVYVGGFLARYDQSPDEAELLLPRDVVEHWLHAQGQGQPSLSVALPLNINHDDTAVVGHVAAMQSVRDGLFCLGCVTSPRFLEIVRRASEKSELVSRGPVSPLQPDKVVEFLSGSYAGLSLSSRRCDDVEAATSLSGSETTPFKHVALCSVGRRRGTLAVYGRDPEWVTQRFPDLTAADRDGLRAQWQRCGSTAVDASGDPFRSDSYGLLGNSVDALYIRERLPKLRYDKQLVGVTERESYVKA

The pEC50 is the negative decadic logarithm of the EC50, by convention in mol/L. Broadly, the pIC50 is −log10 of the IC50, conventionally taken in molar units. Take `CC[C@@H](NC(=O)N1C(=O)C[C@@H]1Cc1ccccc1)c1ccccc1` [Entry 118]: the pEC50 in data set [1] was 3.74. Besides, in data set [2], the CC50 is over 250 µM. Besides, on HCMV NO protease, the pIC50 was 5.59.

Turning to `CN(Cc1ccc(Cl)cc1)C(=O)N1C(=O)C[C@@H]1Cc1ccccc1` [Entry 126], the pEC50 in data set [1] is 3.82. Further, in data set [2], the CC50 was over 250 µM. Besides, the pIC50 on HCMV NO protease is 5.16.

On to `COc1c(C)cc(NC(=O)N2C(=O)C[C@@H]2Cc2ccccc2)cc1C` [Entry 106], for which the pEC50 in data set [1] is 3.72. For the same molecule, the CC50 in data set [2] is over 250 µM. At HCMV NO protease, this molecule gave a pIC50 of 5.62.

Take `Cc1ccc(NC(=O)N2C(=O)C[C@@H]2Cc2ccccc2)cc1` [Entry 103]: in data set [1], the pEC50 was under 3.60. Further, the CC50 in data set [2] is over 250 µM. The same molecule gave a pIC50 on HCMV NO protease of 5.28.

Take `O=C1C[C@H](Cc2ccccc2)N1C(=O)Nc1ccc(F)cc1` [Entry 101]: the pEC50 in data set [1] is under 3.60. Further, in data set [2], the CC50 was over 250 µM. At HCMV NO protease, this molecule showed a pIC50 of 5.43.
